Some test systems named below: COLO 205 colon; HCT-15 colon; M14 melanoma; MDA-MB-231 breast; MOLT-4 leukemia; SF-268 CNS; SF-295 CNS; SK-MEL-5 melanoma; UACC-257 melanoma; LOX IMVI melanoma.
Common to all, as to assay: growth of human tumour cells (NCI), 48 h

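Results reflect a 48-hour exposure of cells in 96-well plates to compound at five concentrations. GI50 marks 50% less growth. The concentration for full growth arrest is given as TGI.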

On to `COc1ccc2c(c1)-c1c(c3cc(OC)ccc3n1CCN(C)C)CC2`, for which the TGI in the test on COLO 205 colon was 25.5 µM; in the test with HCT-15 colon, 28.9 µM; in the test with M14 melanoma it was 28.5 µM; in the test on MDA-MB-231 breast it was 28.2 µM; in the test on MOLT-4 leukemia, 33.8 µM; with SF-268 CNS it was 37.3 µM. The TGI in the test on SF-295 CNS is 34.3 µM; in the test with SK-MEL-5 melanoma, 24.9 µM; in the test on UACC-257 melanoma, 29.4 µM.
As for `Oc1c(OCc2nnc(CCCCCCCCc3nnc(COc4ccc5ccccc5c4O)o3)o2)ccc2ccccc12`, the TGI in the test on COLO 205 colon, in the test with HCT-15 colon, with M14 melanoma, with MDA-MB-231 breast, in the test on MOLT-4 leukemia and with SF-268 CNS was above 100 µM in each case. Besides, the TGI with SF-295 CNS, with SK-MEL-5 melanoma and in the test on UACC-257 melanoma was above 100 µM throughout.
Regarding `O=c1oc2ccccc2c(O)c1C=NC(=S)c1ccncc1`, the TGI in the test on COLO 205 colon, with HCT-15 colon, in the test with LOX IMVI melanoma, with M14 melanoma, in the test with MDA-MB-231 breast and with MOLT-4 leukemia was above 100 µM each time. For the same compound, the TGI in the test with SF-295 CNS, in the test on SK-MEL-5 melanoma and with UACC-257 melanoma was above 100 µM each time.
Take `CN(C)CCCNc1cc(O)c2c(c1O)C(=O)c1ccccc1C2=O`: the TGI in the test with COLO 205 colon turned out to be 24.5 µM; in the test with HCT-15 colon, 21 µM; with LOX IMVI melanoma it was 24.8 µM; in the test on M14 melanoma, 19.5 µM; in the test on MDA-MB-231 breast it was 27.6 µM; with SF-268 CNS it was 36.4 µM. Further, the TGI in the test on SF-295 CNS was 25.9 µM; with SK-MEL-5 melanoma, 26.5 µM; with UACC-257 melanoma it was 26.6 µM.
As for `O=C(CC(C(=O)c1cccs1)c1ccc2c(c1)OCO2)c1ccc(Br)cc1` (stereo unspecified), the TGI in the test on COLO 205 colon, with HCT-15 colon, in the test with M14 melanoma, with MDA-MB-231 breast, with MOLT-4 leukemia and in the test on SF-268 CNS was above 100 µM in each case. For the same compound, the TGI with SF-295 CNS, in the test on SK-MEL-5 melanoma and in the test with UACC-257 melanoma was above 100 µM in each case.
Turning to `COc1cc2c3cc1Oc1c(OC)c(OC)cc4c1C(Cc1ccc(O)c(c1)Oc1ccc(cc1)CC3N(C)CC2)CN(C)C4` (stereo unspecified), the TGI was 21.6 µM in the test on COLO 205 colon; 33.9 µM with HCT-15 colon; 15 µM in the test with M14 melanoma; 28.1 µM with MDA-MB-231 breast; 54.5 µM in the test on MOLT-4 leukemia; 65.6 µM in the test with SF-268 CNS. The figures for the TGI in the test with SF-295 CNS, with SK-MEL-5 melanoma and in the test on UACC-257 melanoma were 32.7 µM, 26.4 µM and 27.1 µM, respectively.
As for `Cc1cn(CCCCCOC(=O)NC(CCCNC(N)=O)C(=O)O)c(=O)[nH]c1=O` (stereo unspecified), the TGI with COLO 205 colon, with HCT-15 colon, with LOX IMVI melanoma, with M14 melanoma, in the test with MDA-MB-231 breast and in the test with MOLT-4 leukemia was above 100 µM throughout. Besides, the TGI in the test with SF-268 CNS, in the test on SF-295 CNS and in the test with UACC-257 melanoma was above 100 µM throughout.
In the case of `C[C@H](c1ccccc1)N1C(=O)[C@@H](OCc2ccccc2)[C@H]1[C@H](COC(=O)COCc1ccccc1)OCc1ccccc1`, the TGI in the test on COLO 205 colon, with HCT-15 colon, in the test with LOX IMVI melanoma, in the test on M14 melanoma, in the test with MDA-MB-231 breast and with MOLT-4 leukemia was above 100 µM throughout. Also, the TGI with SF-268 CNS, in the test on SF-295 CNS and in the test with SK-MEL-5 melanoma was above 100 µM in each case.
With `CC(C)(C)c1cc(/C=C2/NC(=O)NC2=O)cc(C(C)(C)C)c1O`, the TGI came to 28.5 µM with COLO 205 colon; 28.2 µM with HCT-15 colon; 32.9 µM with LOX IMVI melanoma; 26.2 µM in the test on MDA-MB-231 breast; 44.6 µM with MOLT-4 leukemia; 28.8 µM with SF-268 CNS. Besides, the TGI in the test on SF-295 CNS stood at 29.1 µM; in the test with SK-MEL-5 melanoma, 27 µM; with UACC-257 melanoma, 29.9 µM.
Consider `CCN(CCCCCCCCCCN1CC(=O)N(CCCCCCCCCCN(CC)Cc2ccccc2OC)CC1=O)Cc1ccccc1OC`, for which the GI50 in the test on COLO 205 colon was 1.05 µM; with HCT-15 colon, 1.55 µM; with LOX IMVI melanoma, 0.587 µM; with MDA-MB-231 breast, 1.56 µM; in the test on MOLT-4 leukemia, 1.8 µM; in the test on SF-268 CNS, 1.49 µM. The results for the GI50 in the test with SF-295 CNS, in the test with SK-MEL-5 melanoma and with UACC-257 melanoma were 1.15 µM, 1.36 µM and 1.7 µM, respectively. Also, the TGI in the test on COLO 205 colon was found to be 2.52 µM; with HCT-15 colon, 5.34 µM; in the test with LOX IMVI melanoma, 1.93 µM; with MDA-MB-231 breast, 3.61 µM; with MOLT-4 leukemia, 8.04 µM; with SF-268 CNS, 2.96 µM. Further, the TGI in the test with SF-295 CNS stood at 3.02 µM; in the test on SK-MEL-5 melanoma, 2.7 µM; in the test with UACC-257 melanoma, 3.34 µM.
For `O=[N+]([O-])/C(Cl)=C(/C(Cl)=C(Cl)Cl)N1CCCCC1`, the TGI was 22.7 µM with COLO 205 colon; 19.1 µM with HCT-15 colon; 25.5 µM with LOX IMVI melanoma; 23.3 µM in the test on M14 melanoma; 41.6 µM in the test on MDA-MB-231 breast; 11.7 µM in the test with MOLT-4 leukemia. Moreover, the TGI in the test on SF-268 CNS was determined as 75.1 µM; in the test on SF-295 CNS, 54.3 µM; in the test on SK-MEL-5 melanoma, 20.2 µM.
Take `COc1ccc(OC)c(NC(=O)C(=O)C(C(=O)c2ccccc2F)C2OC(=O)c3ccccc32)c1` (stereo unspecified): the TGI in the test with COLO 205 colon, in the test on HCT-15 colon, with LOX IMVI melanoma, in the test with M14 melanoma, with MOLT-4 leukemia and in the test on SF-268 CNS was above 100 µM throughout. The TGI with SF-295 CNS, in the test on SK-MEL-5 melanoma and in the test on UACC-257 melanoma was above 100 µM throughout.
For the compound `CCOC(=O)Cn1nnc2cc(Nc3c(C)[n+]([O-])c4cc(F)c(OCC)cc4[n+]3[O-])ccc21`, the TGI with HCT-15 colon, in the test with LOX IMVI melanoma, with M14 melanoma, in the test with MDA-MB-231 breast, in the test on MOLT-4 leukemia and with SF-268 CNS was above 100 µM throughout. Besides, the TGI in the test with SF-295 CNS, with SK-MEL-5 melanoma and in the test on UACC-257 melanoma was above 100 µM each time.

The values are drawn from PubChem BioAssay (NCI).
